The structures appear in SMILES notation. Bounds are passed on as bounds.

The results in this text go back to US11498929B2, “Chromenopyrimidine derivatives as phosphatidylinsitol phosphate kinase inhibitors” (Hibercell, Inc., priority 2019, dated 2022).

In one test the test system is MOLM-16. Nature of the test: MOLM-16 EC50 assay. It is filed as cell-based. Particulars: MOLM16.
Another test has as its target T1, PIP4K2A (Homo sapiens, UniProt P48426).
T1 construct: GST; made in house; host or cells: E. coli
T1 sequence (P48426 1-406): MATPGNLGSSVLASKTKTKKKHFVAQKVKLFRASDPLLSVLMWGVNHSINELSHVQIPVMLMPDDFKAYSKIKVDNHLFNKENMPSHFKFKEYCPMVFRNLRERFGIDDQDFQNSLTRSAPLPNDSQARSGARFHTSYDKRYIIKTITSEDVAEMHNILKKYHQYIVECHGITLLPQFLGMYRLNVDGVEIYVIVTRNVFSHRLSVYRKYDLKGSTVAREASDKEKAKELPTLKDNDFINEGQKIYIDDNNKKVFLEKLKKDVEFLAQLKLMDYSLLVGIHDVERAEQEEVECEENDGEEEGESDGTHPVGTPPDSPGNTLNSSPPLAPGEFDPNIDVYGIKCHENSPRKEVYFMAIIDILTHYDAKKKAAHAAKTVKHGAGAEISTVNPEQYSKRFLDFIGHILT
As to the kind of experiment: Kinase Assay - PIP4K2 A (inhibition of PIP4K2 A kinase assay). The class given is biochemical. The following applies: compounds listed under IC50 bin headings. On the procedure:
Dilution series of the compounds were prepared in DMSO at 100 times the final assay concentration (n1=n0/3 in 10 points). The compounds were further diluted to three times the assay concentration in assay buffer (20 mM MOPS pH 7.2, 25 mM magnesium chloride, 0.005% Tween 20). 6 μL of the diluted compounds were added to a 384 well assay plate followed by 9 μL of a mix consisting of 4 nM PIP4K2A (full length protein, SignalChem) and 100 μM PI(5)P diC8 (Tebu-Bio). Enzyme and compounds were pre-incubated at room temperature for 15 minutes.
Then 3 μL of a solution containing 60 μM ATP (Promega) in assay buffer was added to the wells containing compound and enzyme and mixing was performed by pipetting several times. The reaction was incubated at room temperature for 1 h. Then 18 μL of ADP-Glo™ Reagent (Promega) was added to stop the kinase reaction and deplete the unconsumed ATP, mixing was performed by pipetting several times. The plate was incubated at room temperature for 40 minutes before addition of 36 μL of Kinase Detection Reagent (Promega) to convert ADP to ATP and introduce luciferase and luciferin to detect ATP. The reaction was incubated at room temperature for 40 minutes before the luminescence was measured in a in a Victor 3V 1420 multilabel counter (Perkin Elmer).
Percent inhibition of the compounds as compared to dimethyl sulfoxide treated control samples was calculated. Compound concentration versus percent inhibition were fitted to generate IC50 values. […]

Test [1] addresses T2, PIP4K2 B (GST-tagged PIP4KtypeIIB) (Homo sapiens, UniProt P78356).
T2 construct: GST; made in house; host or cells: E. coli
T2 sequence (P78356 1-416): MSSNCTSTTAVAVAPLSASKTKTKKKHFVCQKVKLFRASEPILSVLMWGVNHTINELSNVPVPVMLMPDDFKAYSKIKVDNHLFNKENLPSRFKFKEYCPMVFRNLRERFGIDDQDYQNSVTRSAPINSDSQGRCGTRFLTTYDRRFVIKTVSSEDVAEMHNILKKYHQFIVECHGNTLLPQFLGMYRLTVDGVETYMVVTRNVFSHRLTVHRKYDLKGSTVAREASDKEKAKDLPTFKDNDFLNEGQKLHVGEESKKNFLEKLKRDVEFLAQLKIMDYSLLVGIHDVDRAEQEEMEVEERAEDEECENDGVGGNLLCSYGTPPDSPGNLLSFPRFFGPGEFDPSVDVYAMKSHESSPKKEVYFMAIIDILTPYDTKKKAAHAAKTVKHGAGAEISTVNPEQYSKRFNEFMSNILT
As to the kind of experiment: Kinase Assay - PIP4K2 B (inhibition of PIP4K2 B kinase assay). It is filed as biochemical. The following applies: compounds listed under IC50 bin headings. The text has this: GST tagged PIP4KtypeIIA and B enzymes were overexpressed in E. Coli and purified to >80% homogeneity. Phosphatidyl inositol-5-phosphate (PI5P, Cat. #850152, Avanti Polar Lipids Inc.) was used as the lipid substrate and phosphatidyl ethanolamine (DOPE 18:1, Cat. #850725, Avanti Polar Lipids Inc.) was used as the carrier lipid for assays. Ultrapure ATP and GTP was purchased from Bellbrooke Labs. ADP Glo reagents were obtained from Promega. Transcreener FI reagent was obtained from Bellbrooke labs.
GST-tagged PIP4KtypeIIB (3.4 uL, 2.77 mg/mL) was diluted to 5 mL using HNE buffer to yield 5× enzyme stock (25 nM)
Lipid Preparation: In a 10 mL pyrex glass vial, 1 ug of PI5P and 1 ug of DOPE were suspended in 2.5 mL of HEPES buffer mix and 2.5 mL of H:E buffer. The contents were mixed and sonicated for 3 min to yield a translucent lipid stock.
Compound Preparation: Compounds were stored as 5 mM stocks in neat DMSO as room temperature in glass vials. 5 mM stocks were diluted to 2 mM and then serially diluted (3×) in neat DMSO in 96 well polypropylene plates. From the serially diluted stocks, 3 uL was delivered into 250 uL of 25% DMSO (in water) to generate 5× compound stocks. Typically, the highest compound conc. was 24 uM.
The assay volume was kept at 25 uL. To each well of the reaction plate, 10 uL of lipid stock (1:1 ratio PI5P:DOPE) was delivered. This was followed by the addition of 5 uL of compound in 25% DMSO. Then, to each well, 5 uL of 25 nM (5×) typeIIB enzyme was delivered. The contents were mixed well and incubated for 1 h at 27 C. After 1 h, reaction was initiated by adding 5 uL of 500 uM GTP and the contents were mixed well with a multi-channel pipetteman. The final concentration of the reagents are as follows: 50 mM HEPES, pH 7.3, 10 mM MgCl2, 20 mM NaCl, 0.01% v/v triton-X100, 5% DMSO, 100 uM GTP, 80 uM (2 ug) PI5P, 2 ug DOPE, and 5 nM PIP4KIIB Typically, the highest conc. of compounds was 4.8 uM and the lowest conc. was 0.
After 2 h, the reaction was quenched by adding 25 uL of transcreener FI reagent. The contents were incubated at RT for 1 h and the Fluorescence (Ex:584 Em: 623) was read using Molecular Devices Paradigm plate reader. […] The blanks were averaged and subtracted from all other wells. Using a calibration curve, RFU was converted to uM GDP (product). IC50 was calculated by plotting the residual activity (expressed as % No inhibitor control) vs. log [Inh. conc.]

Take `Cc1conc1-c1ccc2c(c1)OC(C)(C)c1nc(Nc3cnc4c(c3)N(C(=O)N(C)C)CCO4)ncc1-2` [Compound 15, 7-{[5,5-dimethyl-8-(4-methyl-1,2-oxazol-3-yl)-5H-chromeno[3,4-d]pyrimidin-3-yl]amino}-N,N-dimethyl-1H,2H,3H-pyrido[2,3-b][1,4]oxazine-1-carboxamide]: in the test on MOLM-16, the EC50 – broadly, the concentration needed to bring the measured effect to its halfway point – is 0.1 to 1 µM. The results for the half-maximal inhibitory concentration (IC50) (against PIP4K2A; in test [1]) were no more than 0.001 µM and 0.001 to 0.01 µM, respectively.
On the same counts, the results for `CC(=O)OC1(C(=O)N2CCOc3ncc(Nc4ncc5c(n4)C(C)(C)Oc4cc(-n6nncc6C)ccc4-5)cc32)CC1` [Compound 16, 1-(7-{[5,5-dimethyl-8-(5-methyl-1H-1,2,3-triazol-1-yl)-5H-chromeno[3,4-d]pyrimidin-3-yl]amino}-1H,2H,3H-pyrido[2,3-b][1,4]oxazine-1-carbonyl)cyclopropyl acetate] are greater than 1 µM, no more than 0.001 µM and 0.001 to 0.01 µM.
On the same counts, the results for `CCN1CCN(Cc2cncc(Nc3ncc4c(n3)C(C)(C)Oc3cc(-n5nncc5C)ccc3-4)c2)CC1` [Compound 17, N-[5,5-dimethyl-8-(5-methyl-1H-1,2,3-triazol-1-yl)-5H-chromeno[3,4-d]pyrimidin-3-yl]-5-[(4-ethylpiperazin-1-yl)methyl]pyridin-3-amine] are 0.1 to 1 µM, no more than 0.001 µM and 0.001 to 0.01 µM.
For `CC1(C)Oc2cc(N3CCCC3=O)ccc2-c2cnc(Nc3cncc(N4CCN(CCO)CC4)c3)nc21` [Compound 19, 1-[3-({5-[4-(2-hydroxyethyl)piperazin-1-yl]pyridin-3-yl}amino)-5,5-dimethyl-5H-chromeno[3,4-d]pyrimidin-8-yl]pyrrolidin-2-one], in that order: 0.01 to 0.1 µM, 0.001 to 0.01 µM and 0.01 to 0.1 µM.
In turn, `CN1CCN(CC(=O)N2CCOc3ncc(Nc4ncc5c(n4)C(C)(C)Oc4cc(N6CCCC6=O)ccc4-5)cc32)CC1` [Compound 22, 1-[5,5-dimethyl-3-({1-[2-(4-methylpiperazin-1-yl)acetyl]-1H,2H,3H-pyrido[2,3-b][1,4]oxazin-7-yl}amino)-5H-chromeno[3,4-d]pyrimidin-8-yl]pyrrolidin-2-one] gave an EC50 with MOLM-16 of 0.01 to 0.1 µM. The concentration for half-maximal inhibition (IC50) (in general, the midpoint of a concentration-inhibition curve) on PIP4K2A is 0.001 to 0.01 µM; in test [1], 0.01 to 0.1 µM.
In the test on MOLM-16, `CC1(C)Oc2cc(N3CCCC3=O)ccc2-c2cnc(Nc3cnc4c(c3)N(C(=O)NC3CC3)CCO4)nc21` [Compound 23, N-cyclopropyl-7-{[5,5-dimethyl-8-(2-oxopyrrolidin-1-yl)-5H-chromeno[3,4-d]pyrimidin-3-yl]amino}-1H,2H,3H-pyrido[2,3-b][1,4]oxazine-1-carboxamide] returned an EC50 of 0.01 to 0.1 µM. Moreover, the half-inhibitory concentration (IC50) lay within 0.001 to 0.01 µM on PIP4K2A and 0.01 to 0.1 µM in test [1].
Turning to `CN(C)C1CCN(c2cncc(Nc3ncc4c(n3)C(C)(C)Oc3cc(N5CCCC5=O)ccc3-4)c2)CC1` [Compound 25, 1-[3-({5-[4-(dimethylamino)piperidin-1-yl]pyridin-3-yl}amino)-5,5-dimethyl-5H-chromeno[3,4-d]pyrimidin-8-yl]pyrrolidin-2-one], the EC50 in the test on MOLM-16 fell in the range of 0.01 to 0.1 µM. Besides, the half-maximal inhibitory concentration (IC50) against PIP4K2A is 0.001 to 0.01 µM; in test [1] it was 0.01 to 0.1 µM.
The compound `CN1CCOc2ncc(Nc3ncc4c(n3)C(C)(C)Oc3cc(N5C(=O)CCC56CC6)ccc3-4)cc21` [Compound 26, 4-[5,5-dimethyl-3-({1-methyl-1H,2H,3H-pyrido[2,3-b][1,4]oxazin-7-yl}amino)-5H-chromeno[3,4-d]pyrimidin-8-yl]-4-azaspiro[2.4]heptan-5-one] showed a concentration for a half-maximal effect (EC50) in the test with MOLM-16 of 0.1 to 1 µM. The IC50 (at PIP4K2A; in test [1]) was 0.001 to 0.01 µM in each case.
On to `CC(=O)OC(C)(C)C(=O)N1CCOc2ncc(Nc3ncc4c(n3)C(C)(C)Oc3cc(-c5nocc5C)ccc3-4)cc21` [Compound 29, 1-(7-{[5,5-dimethyl-8-(4-methyl-1,2-oxazol-3-yl)-5H-chromeno[3,4-d]pyrimidin-3-yl]amino}-1H,2H,3H-pyrido[2,3-b][1,4]oxazin-1-yl)-2-methyl-1-oxopropan-2-yl acetate], for which the EC50 in the test on MOLM-16 is greater than 1 µM. The half-inhibitory concentration (IC50) against PIP4K2A lay within 0.001 to 0.01 µM; in test [1] it was 0.01 to 0.1 µM.
On the same counts, the results for `CC1(C)Oc2cc(N3CCCC3=O)ccc2-c2cnc(Nc3cncc(CNCCS(C)(=O)=O)c3)nc21` [Compound 31, 1-{3-[(5-{[(2-methanesulfonylethyl)amino]methyl}pyridin-3-yl)amino]-5,5-dimethyl-5H-chromeno[3,4-d]pyrimidin-8-yl}pyrrolidin-2-one] are 0.01 to 0.1 µM, 0.01 to 0.1 µM and 0.01 to 0.1 µM.
For `CCN(CC)CCN(C)c1cncc(Nc2ncc3c(n2)C(C)(C)Oc2cc(N4CCCC4=O)ccc2-3)c1` [Compound 32, 1-{3-[(5-{[2-(diethylamino)ethyl](methyl)amino}pyridin-3-yl)amino]-5,5-dimethyl-5H-chromeno[3,4-d]pyrimidin-8-yl}pyrrolidin-2-one], in that order: 0.01 to 0.1 µM, 0.01 to 0.1 µM and 0.1 to 1 µM.
For `CN(C)CCOc1cncc(Nc2ncc3c(n2)C(C)(C)Oc2cc(N4CCCC4=O)ccc2-3)c1` [Compound 33, 1-[3-({5-[2-(dimethylamino)ethoxy]pyridin-3-yl}amino)-5,5-dimethyl-5H-chromeno[3,4-d]pyrimidin-8-yl]pyrrolidin-2-one], the half-maximal effective concentration (EC50) in the test with MOLM-16 was 0.01 to 0.1 µM. The IC50 fell in the range of 0.01 to 0.1 µM on PIP4K2A and 0.1 to 1 µM in test [1].
`CN1CCN(CC(=O)N(C)c2cncc(Nc3ncc4c(n3)C(C)(C)Oc3cc(N5CCCC5=O)ccc3-4)c2)CC1` [Compound 35, N-(5-{[5,5-dimethyl-8-(2-oxopyrrolidin-1-yl)-5H-chromeno[3,4-d]pyrimidin-3-yl]amino}pyridin-3-yl)-N-methyl-2-(4-methylpiperazin-1-yl)acetamide] displayed an EC50 in the test with MOLM-16 of 0.1 to 1 µM. The half-inhibitory concentration (IC50) against PIP4K2A was 0.1 to 1 µM; in test [1] it was greater than 1 µM.
